Assay: wn = mass fraction of the nth substance listed
Conditions: Gas, Burnett expansion method

F/C=C/C(F)(F)F [trans-1,3,3,3-tetrafluoropropene] + CC(C)C
Conditions	mass density [kg/m3]
325.1 K, 523.6 kPa, w1 = 0.85	21.624
325.1 K, 621.5 kPa, w1 = 0.75	24.3306
325.1 K, 668.2 kPa, w1 = 0.85	28.6964
325.1 K, 786.7 kPa, w1 = 0.75	32.2887
325.1 K, 844.6 kPa, w1 = 0.85	38.0818
325.11 K, 166.4 kPa, w1 = 0.7	5.6568
325.11 K, 167.1 kPa, w1 = 0.75	5.9115
325.11 K, 218.6 kPa, w1 = 0.7	7.5069
325.11 K, 237.8 kPa, w1 = 0.85	9.2525
325.11 K, 286.7 kPa, w1 = 0.7	9.9621
325.11 K, 373.4 kPa, w1 = 0.7	13.2204
325.11 K, 483.2 kPa, w1 = 0.7	17.5443
325.11 K, 617.3 kPa, w1 = 0.7	23.2823
325.13 K, 167.9 kPa, w1 = 0.65	5.518
325.13 K, 220.6 kPa, w1 = 0.65	7.3227
325.13 K, 289.1 kPa, w1 = 0.65	9.7176
325.13 K, 377.5 kPa, w1 = 0.65	12.8959
325.13 K, 484.7 kPa, w1 = 0.65	17.1136
325.13 K, 619.9 kPa, w1 = 0.65	22.7108
325.17 K, 238.4 kPa, w1 = 0.8	8.8968
325.17 K, 312.1 kPa, w1 = 0.8	11.8066
325.17 K, 407 kPa, w1 = 0.8	15.6681
325.17 K, 526.5 kPa, w1 = 0.8	20.7926
325.17 K, 669 kPa, w1 = 0.8	27.593
325.17 K, 846.3 kPa, w1 = 0.8	36.6175
325.18 K, 181.5 kPa, w1 = 0.8	6.704
325.18 K, 192.3 kPa, w1 = 0.9	7.7424
325.18 K, 252.4 kPa, w1 = 0.9	10.2747
325.18 K, 330.4 kPa, w1 = 0.9	13.6351
325.18 K, 430.4 kPa, w1 = 0.9	18.0945
325.18 K, 549.6 kPa, w1 = 0.9	24.0125
325.18 K, 703.2 kPa, w1 = 0.9	31.8661
330.12 K, 156.9 kPa, w1 = 0.75	5.446
330.12 K, 205.5 kPa, w1 = 0.75	7.2271
330.12 K, 271 kPa, w1 = 0.75	9.5908
330.12 K, 354.5 kPa, w1 = 0.75	12.7274
330.12 K, 457.3 kPa, w1 = 0.75	16.8904
330.12 K, 588.2 kPa, w1 = 0.75	22.4145
330.12 K, 750 kPa, w1 = 0.75	29.7454
330.12 K, 945.5 kPa, w1 = 0.75	39.4741
330.12 K, 981.5 kPa, w1 = 0.85	44.7652
330.13 K, 163.7 kPa, w1 = 0.85	6.1759
330.13 K, 215.1 kPa, w1 = 0.85	8.1958
330.13 K, 282.7 kPa, w1 = 0.85	10.876
330.13 K, 369.7 kPa, w1 = 0.85	14.4335
330.13 K, 612.7 kPa, w1 = 0.85	25.4187
330.13 K, 779.3 kPa, w1 = 0.85	33.7323
330.14 K, 476.1 kPa, w1 = 0.85	19.1537
330.2 K, 440.7 kPa, w1 = 0.7	15.4891
330.2 K, 559.7 kPa, w1 = 0.7	20.5552
330.2 K, 717.8 kPa, w1 = 0.7	27.2782
330.21 K, 338.1 kPa, w1 = 0.7	11.6715
330.21 K, 929.7 kPa, w1 = 0.9	43.8273
330.22 K, 153.7 kPa, w1 = 0.9	6.0465
330.22 K, 202.2 kPa, w1 = 0.9	8.024
330.22 K, 258.3 kPa, w1 = 0.7	8.7948
330.22 K, 265.5 kPa, w1 = 0.9	10.6483
330.22 K, 347.5 kPa, w1 = 0.9	14.131
330.22 K, 452.8 kPa, w1 = 0.9	18.7526
330.22 K, 576.5 kPa, w1 = 0.9	24.8861
330.22 K, 735.5 kPa, w1 = 0.9	33.0255
330.23 K, 145.4 kPa, w1 = 0.65	4.6896
330.23 K, 149.5 kPa, w1 = 0.7	4.9937
330.23 K, 192.1 kPa, w1 = 0.65	6.2233
330.23 K, 252.5 kPa, w1 = 0.65	8.2587
330.23 K, 272.1 kPa, w1 = 0.8	10.0277
330.23 K, 354.3 kPa, w1 = 0.8	13.3074
330.23 K, 463.4 kPa, w1 = 0.8	17.6597
330.23 K, 754.4 kPa, w1 = 0.8	31.1003
330.23 K, 951.7 kPa, w1 = 0.8	41.2719
330.24 K, 157.7 kPa, w1 = 0.8	5.6939
330.24 K, 196.7 kPa, w1 = 0.7	6.6269
330.24 K, 207.3 kPa, w1 = 0.8	7.5562
330.24 K, 330.6 kPa, w1 = 0.65	10.9596
330.24 K, 431.5 kPa, w1 = 0.65	14.544
330.24 K, 590.5 kPa, w1 = 0.8	23.435
330.24 K, 702.3 kPa, w1 = 0.65	25.6134
330.25 K, 548.5 kPa, w1 = 0.65	19.3004

— the NIST ThermoML archive (doi:10.1016/j.jct.2017.03.032)
